Test results published in US20130108563A1, “COMPOSITIONS COMPRISING AT LEAST ONE AQUEOUS PHASE AND AT LEAST ONE FATTY PHASE WHICH COMPRISES AVERMECTIN COMPOUNDS” (Galderma S.A., priority 2006, published 2013).

Legend:
[1] = 1-month stability of ivermectin in oily-phase excipients; type: physicochemical
Protocol: (§1) Maximum solubility of ivermectin at T1 hour at ambient temperature (AT) in various oily-phase excipients and 1 month stability at AT and T40° C.

[2] = Maximum solubility of ivermectin in oily-phase excipients; type: physicochemical; settings: T1 hour, ambient temperature
Protocol: as §1

## ivermectin
[1]; in Diisopropyl adipate
  1-month stability at 40° C.: Stable
  1-month stability at AT: Stable
[1]; in PPG 15 stearyl ether
  1-month stability at 40° C.: Stable
  1-month stability at AT: Stable
[2]; in C12-C15 alkyl benzoate
  Maximum solubility of ivermectin % (w/w): 1.6 % (w/w)
[2]; in Diisopropyl adipate
  Maximum solubility of ivermectin % (w/w): 10.4 % (w/w)
[2]; in Guerbet alcohol
  Maximum solubility of ivermectin % (w/w): 2.5 % (w/w)
[2]; in PPG 15 stearyl ether
  Maximum solubility of ivermectin % (w/w): 3.3 % (w/w)
